Experimental findings from patent US11787835B2, “C19 scaffolds and steroids and methods of use and manufacture thereof” (Trustees of Dartmouth College, priority 2018, dated 2023) are described below.

Experiment [1] deals with DU-145 prostate cancer cells (endogenous ERβ). Put plainly: Alkaline phosphatase activity in DU-145 prostate cancer cells. It is filed as cell-based, human. To be noted: DU-145 cells, 24 hours, 5 μM, FIG. 2. The protocol:
FIG. 2 is a bar graph showing alkaline phosphatase activity in human DU-145 prostate cancer cells (17β-estradiol, Compound 100, and Compound 101 were evaluated at 5 μM).
The DU-145 prostate cancer cell line only expresses ERβ and can be used as a model to examine the activation of ERβ in the absence of any potential confounding signal driven by ERα. Alkaline phosphatase (ALP) expression is induced in an ER-dependent manner and has been used to characterize the activity of synthetic ER agonists and antagonists.
In order to examine the ability of Compound 100 and Compound 101 to activate ERβ in the context of a cell line expressing endogenous ERβ, DU-145 cells were treated for 24 hours with either 17β-estradiol, Compound 100, or Compound 101 and ALP activity derived from the cells was examined.

The target in the next experiment is ERβ (Homo sapiens, UniProt Q92731). Put plainly: ERβ agonist assay (functional activity at estrogen receptors). It is filed as cell-based. The protocol:
FIG. 1 is a set of line graphs showing the results of ERβ and ERα agonist assays for Compounds 100 and 101.
Compounds 100 and 101 were evaluated for their functional activity at estrogen receptors (both ERα and ERβ). 17β-estradiol was used as a control, as it is appreciated to be a potent agonist of both ERα and ERβ.

Experiment [2] concerns U251 and U87 cells. Description: Growth inhibition and viable cell counts of glioblastoma cell lines. It is filed as cell-based, human. To be noted: for inhibition of glioma cell growth (IC50), fold lower concentration compared to TMZ: after 24 hours, FIG. 3A. The method, then: FIG. 3A-3B are line graphs depicting (A) dose dependent growth inhibition of U251 and U87 cells treated with Compound 100, Compound 101, TMZ, and vehicle control DMSO (n=4) and (B) viable cell counts of U251 and U87 cells treated with Compound 100, Compound 101, TMZ, and vehicle control DMSO determined every 24 hours for 96 hours (n=4)
(§1) To determine the biological effect of Compound 100 and Compound 101, human glioblastoma-derived cell lines U251 and U87 were treated with varying concentrations of Compound 100, Compound 101, temazolomide (TMZ; a standard of care chemotherapeutic agent), or vehicle-toxicity control, dimethylsulfoxide (DMSO) used at final volumes that were identical to those used to attain all concentrations tested of Compound 100 and Compound 101.

Another experiment deals with glioblastoma cell lines. Description: MTT cell viability assay in glioblastoma cell lines. It is filed as cell-based, human. The protocol:
as §1

Experiment [3] has as its system U251 and U87 cells. Put plainly: Annexin V/7-AAD apoptosis FACS analysis. It is filed as cell-based, human. The note with it: 24 hours, Annexin V and 7-AAD, FIG. 3C. The method, then: FIG. 3C is a flow cytometric analysis of U251 and U87 co-stained with Annexin V-FITC/7-AAD after treatment with Compound 100, Compound 101, TMZ, and vehicle control DMSO (n=4).
(§2) In order to elucidate the mechanism of this cell death, glioblastoma cells treated for 24 hours with Compound 100, Compound 101, TMZ, or DMSO control were analyzed for early and late apoptosis markers (Annexin V and 7-Aminoactinomycin D) by FACS analyses. […] Additionally, over a period of five days, morphological changes in U251 and U87 cells treated with Compound 100 and Compound 101 were tracked using the Incucyte live cell imaging system.
(Flow cytometry measures light scatter and fluorescence of single cells or particles in a stream.)

Experiment [4] deals with U251 and U87 cells. Put plainly: Incucyte live cell imaging of morphological changes. The class given is cell-based, human. To be noted: over five days, FIG. 3D. The method, then: FIG. 3D depicts phase-contrast images using Incucyte for live cell tracking of U251 and U87 cells in response to treatment with Compound 100, Compound 101, TMZ, and vehicle control DMSO. Live cells were tracked and imaged for 96 hours (data not shown). Scale bar=300 μm. All data in FIG. 3A-3D are representative of four independent experiments and four replicates of each treatment condition were analyzed per experiment.
as §2

In a further experiment the test system is established tumors. Description: In vivo growth of established tumors. The note with it: initial studies. From the text:
In comparison to 17β-estradiol, Compound 100 and Compound 101 have a unique profile for selective agonism of ERβ (FIG. 1).

Experiment [5] has as its system primary glioma tumor cells from patients. Put plainly: Growth of primary glioma tumor cells from patients. The class given is cell-based, human. The source says: The present disclosure also relates to the use of such compounds as biologically active (e.g., therapeutic) components in, for example, pharmaceutical compositions and/or directly as human and/or animal therapeutics and medicines. In certain embodiments, the compounds are ERβ selective agonists and/or may be used to treat or prevent conditions, disorders, or diseases such as cancer (e.g., breast cancer, prostate cancer, ovarian cancer, acute myeloid leukemia, and glioma, among others) or neurodegeneration. Currently there is no widely applicable cure for primary brain tumors.

Chain of ERβ (Q92731 whole entry, species assumed): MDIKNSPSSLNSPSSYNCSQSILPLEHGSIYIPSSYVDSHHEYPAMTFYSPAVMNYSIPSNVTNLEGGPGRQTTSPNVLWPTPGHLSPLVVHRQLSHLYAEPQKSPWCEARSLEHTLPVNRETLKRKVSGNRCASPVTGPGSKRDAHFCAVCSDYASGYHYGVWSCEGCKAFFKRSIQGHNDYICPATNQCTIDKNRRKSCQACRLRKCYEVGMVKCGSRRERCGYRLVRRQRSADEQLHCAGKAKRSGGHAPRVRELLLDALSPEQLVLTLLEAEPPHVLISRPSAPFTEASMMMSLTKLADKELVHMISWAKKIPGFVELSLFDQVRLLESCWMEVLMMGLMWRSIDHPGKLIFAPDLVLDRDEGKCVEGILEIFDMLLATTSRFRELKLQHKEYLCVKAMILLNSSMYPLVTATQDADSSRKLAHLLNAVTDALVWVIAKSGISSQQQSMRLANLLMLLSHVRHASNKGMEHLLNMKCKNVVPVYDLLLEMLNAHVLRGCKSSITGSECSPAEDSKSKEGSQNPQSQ

With `C[C@]12CC[C@@H]3c4ccc(O)cc4CC[C@H]3[C@@H]1CC[C@@H]2O` [17β-estradiol, reference compound], in experiment [1], the “induction of ALP activity” value is reported as “effective in inducing ALP activity”.
As for `C[C@]12CC[C@@]3(C)C(=C1C[C@@H](O)C2)CCc1cc(O)ccc13` [Compound 100, (9S,13R,16S)-9,13-dimethyl-7,9,11,12,13,15,16,17-octahydro-6H-cyclopenta[α]phenanthrene-3,16-diol], on ERβ, the “type of ERβ agonism” value was “full agonist”. For the same compound, the “induction of ALP activity” value in experiment [1] is on record as “effective at inducing ALP to levels comparable to 17β-estradiol”. In the experiment on U251 and U87 cells [2], the “inhibition of glioma cell growth (IC50), fold lower concentration compared to TMZ” value was determined as 50 fold. The “viability and proliferation of glioblastoma lines” value in the experiment on U251 and U87 cells [2] (assessed every 24 hours for 5 days, compared to TMZ or DMSO, FIG. 3B) was “reduced viability and the resulting proliferation of glioblastoma lines in a dose dependent manner”. Besides, the “growth of glioblastoma cell lines (MTT)” value with glioblastoma cell lines is listed as “significantly reduced the growth of glioblastoma cell lines in a dose-dependent manner”. Moreover, the “induction of apoptosis, fold higher than TMZ or DMSO controls” value with U251 and U87 cells [3] turned out to be 7 fold. The “morphological changes (adherence, cellular integrity)” value in the experiment on U251 and U87 cells [4] is “Increased loss of adherence and cellular integrity”. In addition, the “growth of established tumors in vivo” value in the experiment on established tumors is “reduces the growth of established tumors”. In experiment [5], the “growth of primary glioma tumor cells from patients” value was “inhibit growth”.
As to `C[C@@]12CC[C@]3(C)C(=C1C[C@H](O)C2)CCc1cc(O)ccc13` [Compound 101, (9R,13S,16R)-9,13-dimethyl-7,9,11,12,13,15,16,17-octahydro-6H-cyclopenta[a]phenanthrene-3,16-diol], the “inhibition of glioma cell growth (IC50), fold lower concentration compared to TMZ” value with U251 and U87 cells [2] stood at 50 fold. For the same compound, in the experiment on U251 and U87 cells [3], the “induction of apoptosis, fold higher than TMZ or DMSO controls” value is recorded as 7 fold.
